Test results as given in PubChem BioAssay AID1996.
≈ marks a conversion by molar mass, not a printed value.

details: buffer; pH 7.4; 200.0 µM

Structure (SMILES)	solubility kinetic [µg/mL]
CC(C)(C)c1ccc(C(=O)/C(C#N)=C/c2cccs2)cc1	4.1 (≈ 13.9 µM)
CC1CCN(C(=O)CNC(=O)Cc2ccccc2)CC1	40.9 (≈ 149 µM)
CCOC(=O)c1nc(Nc2ccccc2C)c2ccccc2n1	> 46.1
Cc1cc(OCC(O)CN2CCOCC2)cc(C)c1Cl.Cl (stereo unspecified)	45.2
Cc1nc2ccccc2cc1C(=O)NCc1ccccc1	> 41.5
CC(NC(=O)c1ccc(F)cc1)C(=O)NC1=NCCS1 (stereo unspecified)	> 44.3
O=C(c1cc(-c2cccc(Cl)c2)on1)N1CCOCC1	20.1 (≈ 68.7 µM)
COc1cccc(C(O)c2nc3ccccc3n2C)c1 (stereo unspecified)	28.9 (≈ 108 µM)
CCOC(=O)c1sc(S(C)(=O)=O)c2c1CCc1conc1-2	4 (≈ 12.2 µM)
O=C(COc1ccccc1Cl)NCCNC(=O)c1cnccn1	39.6 (≈ 118 µM)
CCc1c(C(=O)NC(C)C2CCCO2)csc1C (stereo unspecified)	35.9 (≈ 134 µM)
CC(C)c1ccccc1NC(=O)COC(=O)c1cccnc1	> 44.8
CSc1nc2ccc(NC(=O)c3ccc(=O)[nH]c3)cc2s1	16.1 (≈ 50.7 µM)
O=C(Nc1cccc(C(F)(F)F)c1)c1scc2c1OCCO2	< 0.7
N#Cc1cnc(N)c(Br)c1	27.8 (≈ 140 µM)
CCOC(=O)c1c(NC(=S)Nc2cccnc2)sc(C)c1C	20.1 (≈ 59.9 µM)
N#Cc1ccncc1S(=O)c1ccc(Cl)cc1 (stereo unspecified)	> 39.4
C/C(=N\O)c1cc(Cl)cc(Cl)c1O	30.5 (≈ 139 µM)
COc1cccc(NC(=O)COc2ccc3c(c2)CCC3)c1	1.3 (≈ 4.37 µM)

Structure (SMILES)	solubility kinetic [µg/mL]
CN(C)P(=O)(NC(=O)c1cccn1C)N(C)C	> 38.7
Cc1cccc(NC(=O)CCNC(=O)c2ccccc2)c1	41.5 (≈ 147 µM)
CC(C)c1ccc(CNc2ncc(Br)cn2)cc1	0.4 (≈ 1.31 µM)
COc1ccc(NC(=O)Cn2cc(C#N)c3ccccc32)cc1	< 0.2
CC(=O)Oc1ccc(C(=O)NC(C)CCc2ccccc2)cc1 (stereo unspecified)	42.2 (≈ 136 µM)
Cc1ccc(C)c(N2C(=O)CC(Cc3ccc(Cl)cc3)C2=O)c1 (stereo unspecified)	17.6 (≈ 53.7 µM)
O=S(=O)(NCc1cccs1)c1ccc(Br)cc1	11.6 (≈ 34.9 µM)
COC(=O)/C(=C\C(=O)c1ccc([N+](=O)[O-])cc1)Nc1ccc(OC)cc1	< 0.4
O=C(CN1C(=O)C2C3C=CC(C3)C2C1=O)OCC(=O)c1ccc(Cl)cc1 (stereo unspecified)	> 56.1
COc1ccc(CC(=O)N2CCN(c3ccccc3OC)CC2)cc1OC	51.5 (≈ 139 µM)
CC(NC(=O)c1ccccc1[N+](=O)[O-])C1CC2CCC1C2 (stereo unspecified)	35.2 (≈ 122 µM)
Cn1cnc2c1c(=O)n(Cc1cccc(F)c1)c(=O)n2C	30.8 (≈ 107 µM)
Cc1ccc2cc(NC(=O)c3ccccc3)ccc2n1	> 39.3
COc1ccc(C(=O)NC(=S)N2CCOCC2)cc1[N+](=O)[O-]	> 48.8
Cc1ccc(C(=O)C[n+]2ccccc2)cc1.[I-]	> 50.9
O=C1CNC(=S)N1Cc1ccc(Cl)cc1	> 36.1
COc1ccc(OC)c(S(=O)(=O)NCC(=O)O)c1	34.1 (≈ 124 µM)
O=C(CCCCl)N1CCc2[nH]c3ccccc3c2C1	> 41.5
N#CCN1CCCC(C(N)=O)C1 (stereo unspecified)	19.6 (≈ 117 µM)

Structure (SMILES)	solubility kinetic [µg/mL]
Cc1ccc(NC(=O)CCc2ccc(C)o2)cc1	21.1 (≈ 86.7 µM)
Cn1c(=O)[nH]c(NCCc2ccc(O)cc2)c([N+](=O)[O-])c1=O	> 45.9
O=C(c1ccc(Cl)cc1[N+](=O)[O-])N1CCc2ccccc2C1	6.1 (≈ 19.3 µM)
O=c1c2c3c(sc2nc(NCCO)n1-c1ccccc1)CCCC3	6.8 (≈ 19.9 µM)
COC(=O)Nc1ccc2c(c1)Nc1ccccc1CC2	0.5 (≈ 1.86 µM)
CC1C(C#N)=C(N)OC2=C1C(=O)CC(c1ccccc1)C2 (stereo unspecified)	> 42
CCCCN1C(=O)C(=O)N(CC(=O)Nc2ccc(OC(F)(F)F)cc2)C1=O	6.6 (≈ 17 µM)
O=C(O)C1CCCCC1C(=O)NCc1ccc(Cl)c(Cl)c1 (stereo unspecified)	35.6 (≈ 108 µM)
COc1cc(/C=C/c2nc3ccccc3c(=O)[nH]2)ccc1OC(F)F	1.9 (≈ 5.52 µM)
CN(CC(=O)Nc1cccc(Cl)c1)C1=NS(=O)(=O)c2ccccc21	3.7 (≈ 10.2 µM)
Cl.O=C(NCCN1CCCC1)C(c1ccccc1)c1ccccc1	48.9
O=C(NN1CCOCC1)c1ccc(Br)cc1	> 42.8
CCC(CO)NCc1sccc1C (stereo unspecified)	26.6 (≈ 133 µM)
CC1=Nc2cccc([N+](=O)[O-])c2NC(=O)C1	> 32.9
O=C(COC(=O)c1ccc(O)cc1)Nc1nccs1	> 41.7
CN(C(=O)CCl)C1CCCc2ccccc21 (stereo unspecified)	32.1 (≈ 135 µM)
CC(C)N(CC(N)=O)c1ncnc2sc(-c3ccccc3)cc12	10.4 (≈ 31.9 µM)
COC(=O)c1ccc(Nc2c([N+](=O)[O-])ccc3nonc23)cc1	< 0.2

Results, then the compound that gave them:

solubility kinetic [µg/mL]	Structure (SMILES)
46.5 (≈ 148 µM)	Cc1cccc(OCC(=O)NCCNC(=O)c2cnccn2)c1
> 41.6	Cc1cnc(C(=O)OCC(=O)N2CCC(C)CC2)cn1
> 45	CCOc1ncccc1C(=O)Nc1ccc2c(c1)OCCO2
8.4 (≈ 23.1 µM)	COc1ccccc1C(=O)CN1C(=O)NC2(CCCc3ccccc32)C1=O (stereo unspecified)
1.3 (≈ 4.09 µM)	O=C(CNC(=O)c1ccc(Br)cc1)c1ccccc1
> 28.4	CCN1C(=O)CCCc2ccccc21
35.2 (≈ 115 µM)	C=C(C)C(=O)Nc1ccc2c(c1)OCCOCCOCCO2
5 (≈ 15 µM)	O=C(/C=C/c1ccccc1)NCCCNC(=O)/C=C/c1ccccc1
< 0.4	CCOc1ccc(NC(=O)c2ccc(-c3csc(C)n3)cc2)cc1
> 45	Cc1nc([N+](=O)[O-])c(C(=O)OCc2ccccc2C#N)n1C
42.2 (≈ 142 µM)	Cc1cc(C)c(S(=O)(=O)c2ccccc2Cl)c(=O)[nH]1
> 36.8	CSc1cccc(-n2ccc(=O)c(C)c2C)c1
> 44.4	O=c1cc(CN2CCOCC2)c2cc(Cl)c(O)cc2o1
37.2 (≈ 112 µM)	CCCc1nc2oc3ccccc3c(=O)c2c(=O)n1-c1ccccc1
4.1 (≈ 13.6 µM)	Cc1cc(C)c(NC(=O)Cn2c([N+](=O)[O-])cnc2C)c(C)c1
40.2 (≈ 115 µM)	COc1cccc(C2Nc3ccccc3NC3=C2C(=O)CC(C)(C)C3)c1 (stereo unspecified)
44 (≈ 140 µM)	CN(C)c1ccc(C(=S)N2CCCC2)cc1Br
44.7 (≈ 119 µM)	COc1ccc(CN(C(=O)/C=C/c2ccco2)C2CCS(=O)(=O)C2)cc1 (stereo unspecified)
> 50.5	O=C(NCC1CCCO1)c1cnn2c(C(F)F)cc(C3CC3)nc12 (stereo unspecified)
37.9 (≈ 121 µM)	O=S(=O)(Nc1ccccn1)c1ccc(Br)cc1
22.6 (≈ 97.3 µM)	Cc1cc(C)nc(NC(=O)c2cccs2)c1
> 52.1	CN(C(=O)c1ccc(N2CCOCC2)c([N+](=O)[O-])c1)C1CCCCC1

solubility kinetic [µg/mL]	Structure (SMILES)
> 47	CCCc1nc2oc3c(=O)[nH]cnc3c2c2c1COC(C)(C)C2
40.3 (≈ 132 µM)	CC(=O)Nc1cccc(C(=O)Nc2cccc3ncccc23)c1
2.1 (≈ 8.19 µM)	O=C(NC(=O)c1ccccc1)Nc1ccccc1O
47.4 (≈ 149 µM)	COc1ccccc1C(=O)NCCC(=O)NCC1CCCCC1
> 49	Cc1ccc(NC(=O)CCCc2nc3ccccc3s2)c(O)c1
48.6 (≈ 150 µM)	COc1cccc(OC)c1OCCOCCN1CCN(C)CC1
> 34.4	Cc1cc(C)c(Nc2ncnc(N)n2)c(C)c1
38 (≈ 118 µM)	CCCN1CCOC(CC(=O)Nc2ccc([N+](=O)[O-])cc2)C1=O (stereo unspecified)
2.9 (≈ 9.69 µM)	O=C(Nc1nc2ccccc2s1)c1ccccc1[N+](=O)[O-]
> 45.4	Cc1cc(Cl)ccc1-n1c(-c2cccnc2)n[nH]c1=S
2.1	Br.CC(=O)c1cccc(Nc2nc(-c3ccccc3)cs2)c1
2.4 (≈ 7.74 µM)	N/C(=N\OC(=O)c1cccc(C(F)(F)F)c1)c1cnccn1
28.1 (≈ 85 µM)	O=C(Cc1ccccc1)c1c[nH]c(C(=O)C(Cl)(Cl)Cl)c1
40.6 (≈ 114 µM)	CCOc1ccccc1C(=O)NCCNC(=O)c1ccccc1OCC
< 0.3	Cc1ccc(NC(=O)c2nsc(Cl)c2Cl)cc1
> 44	CC(C)(C)S(=O)(=O)c1cnc(-c2cnccn2)nc1N
1.5 (≈ 5.37 µM)	Cc1ccc2nc(Nc3ccccc3)c(C=O)c(=O)n2c1
> 74.5	CC(Oc1ccc2c(-c3ccccc3)cc(=O)oc2c1)C(=O)NC(Cc1c[nH]c2ccccc12)C(=O)O (stereo unspecified)
1.9 (≈ 7.74 µM)	CCCCc1ccc(NC(=O)C2CCCC2)cc1
8.8 (≈ 29.9 µM)	Cc1ccc(N=C2c3ccccc3C(=O)C2[N+](=O)[O-])cc1C (stereo unspecified)
1.8 (≈ 5.13 µM)	CCc1ccccc1NC(=S)NCCSc1ccc(Cl)cc1
1 (≈ 3.2 µM)	CC(=O)c1cccc(NC(=S)NC(=O)c2ccccc2C)c1

solubility kinetic [µg/mL]	Structure (SMILES)
11.2 (≈ 39.7 µM)	CC(=O)c1ccccc1NCC(=O)Nc1ccc(C)cc1
22.6 (≈ 75.2 µM)	CC1(C)CC(=O)c2sc(NC(=O)c3ccccc3)nc2C1
5.7 (≈ 23.2 µM)	Fc1cccc(Nc2ncnc3sccc23)c1
21 (≈ 41.8 µM)	CCN(CC)S(=O)(=O)c1ccc(/C=C/C(=O)OCC(=O)NC(=O)C2COc3ccccc3O2)cc1 (stereo unspecified)
> 63.2	COc1ccc2cc(Br)ccc2c1CC(=O)NCCCN1CCOCC1
0.2 (≈ 0.54 µM)	N=C1SC(CC(=O)Nc2ccccc2[N+](=O)[O-])C(=O)N1c1ccccc1 (stereo unspecified)
> 51.5	CC(C)(C)OC(=O)NCCC(=O)N/N=C/c1ccc2nccnc2c1
> 48	O=C(OCC(=O)c1ccccc1Br)c1ccncc1
34.3 (≈ 108 µM)	Cc1cccc(C)c1NC(=O)COC(=O)c1ccc([N+](=O)[O-])o1
41.2 (≈ 103 µM)	COc1ccc2nc(NC(=O)C34CC5CC(CC(NC(C)=O)(C5)C3)C4)sc2c1
> 52.1	O=C(CN1C(=O)NC2(CCCCCC2)C1=O)NCc1ccc(F)cc1
> 52.4	Cc1ccc(C(=O)COC(=O)[C@@H](NC(=O)c2ccco2)C(C)C)s1
> 40.1	Cc1cc(C)cc(NS(=O)(=O)c2cccs2)c1
< 0.6	COC(=O)c1sccc1NC(=O)c1ccc(Cl)cc1
> 39.2	COc1ccc(CN2C(=O)C(C)=C(C)C2OC)cc1 (stereo unspecified)
> 52.7	COc1ccc(C(=O)NC(C)c2ccc(-n3ccnc3)cc2)c(OC)c1 (stereo unspecified)
0.5 (≈ 1.59 µM)	Clc1cccc(C2Nc3cccc4cccc(c34)N2)c1Cl
30.7 (≈ 104 µM)	CC(C)CC(=O)N1CCN(Cc2ccccc2Cl)CC1
18.3 (≈ 60.5 µM)	O=C(c1ccco1)N1CCN(c2ccc([N+](=O)[O-])cn2)CC1
0.4 (≈ 1.14 µM)	CCn1cc(C(=O)NCc2ccc(OC)cc2)c(=O)c2ccc(C)nc21
> 38.7	O=S(=O)(Nc1nccs1)c1ccc(F)cc1
